Results on 58 compounds are retold here after publication PMC12040169 (PLOS Biology, 2025).

The nature of the series: in vitro. Conditions: human, hela cells, % viability.
A word on the viability: it is a read-out of living cells in per cent, often relative to untreated cells. As for `CS(=O)(=O)c1ccc(-c2nccnc2NCc2cccnc2)cc1` [CBK036977], the viability at 28.5 h, 10 µM turned out to be 104%.
`CN(C)CCN(C)c1ccc(-c2ccc(F)c(Cl)c2)cn1` [CBK036979]: the viability at 28.5 h, 10 µM came out at 96.8%.
Turning to `COc1ncc(-c2ccc(Nc3ccc(N4CCOCC4)cc3)nc2)c(OC)n1` [CBK036988], the viability at 28.5 h, 10 µM turned out to be 95%.
Consider `COc1ccc(-c2nc(NC(=O)COc3ccc(C)c4c3CCC4)cnc2-c2ccc(F)cc2)cc1` [CBK036990], for which the viability at 28.5 h, 10 µM was determined as 88.7%.
For the compound `COc1ccc(C(=O)OC(C)(C)C)c(-c2nccnc2N[C@@H](C)c2ccccc2)c1` [CBK036994], the viability at 28.5 h, 10 µM turned out to be 94.2%.
For `Cc1c(O)cccc1Nc1cc(-c2cccc(N(C)C)c2)ncn1` [CBK036995], the viability at 28.5 h, 10 µM was determined as 94.3%.
`NS(=O)(=O)c1ccc(C(=O)Nc2cnc(-c3ccc(F)cc3)c(-c3ccsc3)n2)cc1` [CBK036998]: the viability at 28.5 h, 10 µM came to 98.8%.
As to `COc1ccc(-c2nc(NC(=O)C3CCC(OC)CC3)cnc2-c2ccc(F)cc2)cc1` (stereo not shown) [CBK037004], the viability at 28.5 h, 10 µM turned out to be 88.4%.
Consider `Clc1cc(Nc2ccc3[nH]ccc3c2)n2nccc2n1` [CBK037009], for which the viability at 28.5 h, 10 µM came out at 84.7%.
Next, `OC(CNc1nccnc1-c1cccc(C(F)(F)F)c1)COc1ccccc1` (stereo not shown) [CBK037010]: 89.9%.
Next, `OCC1CCCN1c1cc(Cl)nc2ccnn12` (stereo not shown) [CBK037011]: 95.7%; `CC(C)[C@H](CO)Nc1nccnc1-c1ccc(C(=O)N2CCOCC2)cc1` [CBK037012]: 97.7%.
In the case of `CN1CCN(c2cc(-c3cccc4cccnc34)nc3ccnn23)CC1` [CBK037013], the viability at 28.5 h, 10 µM was determined as 90.8%.
Turning to `Oc1cccc(-c2nccnc2NCc2cccc(C(F)(F)F)c2)c1` [CBK037014], the viability at 28.5 h, 10 µM stood at 86.9%.
As to `CN(C)CCN(C)c1cccc(-c2cccc(OC(F)(F)F)c2)n1` [CBK037020], the viability at 28.5 h, 10 µM was found to be 102%.
`COc1cc(C)c(Nc2cccc(-c3ccsc3)n2)cc1OC` [CBK037025]: the viability at 28.5 h, 10 µM came to 104%.
For `CN(C)CCN(C)c1ccc(/C=C/c2ccccc2)cn1` [CBK037026], the viability at 28.5 h, 10 µM was found to be 98.4%.
With `COc1ccc(CNc2cc(-c3cccc(Cl)c3)nc3ccnn23)cc1` [CBK037037], the viability at 28.5 h, 10 µM amounted to 95.8%.
`CN(C)c1ccccc1-c1cc(NC2CCCCC2)ncn1` [CBK037041]: the viability at 28.5 h, 10 µM was 105%.
For the compound `OCc1ccc(-c2cc(NCc3cccs3)n3nccc3n2)cc1` [CBK037046], the viability at 28.5 h, 10 µM stood at 106%.
Next, `CN(C)CCN1CCN(c2nccnc2-c2cccc(CO)c2)CC1` [CBK037047]: 94.7%; `CN1CCN(C(=O)c2cccc(-c3nccnc3NCc3cccc(Cl)c3)c2)CC1` [CBK037048]: 108%.
Take `Nc1cccc(-c2cc(N3CCCC3CO)n3nccc3n2)c1` (stereo not shown) [CBK037049]: the viability at 28.5 h, 10 µM is 88.6%.
In the case of `CC(C)Nc1nccnc1-c1cccnc1` [CBK037054], the viability at 28.5 h, 10 µM stood at 98.9%.
For `CC(O)CNc1nccnc1-c1cccc(O)c1` (stereo not shown) [CBK037055] the value was 97.6%.
On to `CC(O)CNc1nccnc1-c1cccc(CO)c1` (stereo not shown) [CBK037056], for which the viability at 28.5 h, 10 µM is 91.5%.
For the compound `C[C@@H](Nc1nccnc1-c1ccc(C(=O)N2CCOCC2)cc1)c1ccccc1` [CBK037058], the viability at 28.5 h, 10 µM is 107%.
For `Clc1cc(N[C@@H]2CCN(Cc3ccccc3)C2)n2nccc2n1` [CBK037069] the value was 92.3%; for `COc1cc(-c2nccnc2NCc2ccco2)cc(OC)c1OC` [CBK037072], 111%; for `COc1ccc(CNc2cc(/C=C/c3ccccc3)nc3ccnn23)cc1` [CBK037075], 103%.
For `O=C(CCc1cccc(F)c1)Nc1cnc(-c2ccc(F)cc2)c(-c2ccoc2)n1` [CBK037077] the value was 85.3%.
`OCCCNc1cc(Nc2ccccc2)n2nccc2n1` [CBK037078]: the viability at 28.5 h, 10 µM stood at 102%.
Consider `COc1ccccc1-c1nccnc1N1CCN(c2ccncc2)CC1` [CBK037081], for which the viability at 28.5 h, 10 µM worked out at 87.8%.
In the case of `CCC(CO)Nc1nccnc1-c1cccc(C(=O)N2CCN(C)CC2)c1` (stereo not shown) [CBK037087], the viability at 28.5 h, 10 µM stood at 92.6%.
As to `COc1ccc(C(C)C)cc1-c1cc(NCCc2cccnc2)n2nccc2n1` [CBK037097], the viability at 28.5 h, 10 µM was found to be 104%.
Next, `OCc1ccccc1-c1nccnc1NCc1ccco1` [CBK037098]: 94.5%; `O=C(Cc1csc2ccccc12)Nc1cnc(-c2ccc(F)cc2)c(-c2ccoc2)n1` [CBK037102]: 93.3%.
Take `OCc1ccccc1-c1cc(N2CCN(Cc3cccnc3)CC2)n2nccc2n1` [CBK037105]: the viability at 28.5 h, 10 µM is 98.9%.
With `Clc1cc(Nc2cccc(OCc3ccccc3)c2)n2nccc2n1` [CBK037109], the viability at 28.5 h, 10 µM is 92.2%.
Consider `COc1ccccc1OCC(=O)Nc1cnc(-c2cccc(C)c2)c(-c2cccnc2)n1` [CBK037112], for which the viability at 28.5 h, 10 µM stood at 84.1%.
Consider `CN(c1ccccc1)c1cc(-c2cccc(O)c2)nc2ccnn12` [CBK037121], for which the viability at 28.5 h, 10 µM was 91%.
For the compound `COc1cc(CNc2cc(-c3ccccc3N(C)C)ncn2)cc(OC)c1OC` [CBK037123], the viability at 28.5 h, 10 µM came out at 93.1%.
For `CCCC/C=C/c1cc(NCCC)n2nccc2n1` [CBK037127], the viability at 28.5 h, 10 µM amounted to 99.1%.
Turning to `COc1ccc(C(C)C)cc1-c1cncc(NCC(c2cccnc2)N(C)C)n1` (stereo not shown) [CBK037132], the viability at 28.5 h, 10 µM amounted to 110%.
Regarding `Cc1cccc(-c2ncc(NC(=O)C3CC3)nc2-c2cccnc2)c1` [CBK037134], the viability at 28.5 h, 10 µM turned out to be 98.9%.
On to `CN1CCN(c2ccc(-c3cncc(NCCc4ccccn4)n3)cn2)CC1` [CBK037135], for which the viability at 28.5 h, 10 µM was determined as 87.2%.
In the case of `CCCC/C=C/c1nccnc1N[C@@H](C)c1ccccc1` [CBK037138], the viability at 28.5 h, 10 µM came to 84.7%.
Regarding `CN(C)CCN(C)c1cc(-c2cccc(Br)c2)nc2ccnn12` [CBK037140], the viability at 28.5 h, 10 µM is 106%.
With `CN(C)CCN(C)c1cncc(-c2ccc3ccccc3c2)n1` [CBK037146], the viability at 28.5 h, 10 µM amounted to 77.7%.
Take `COc1ccc(-c2nc(NC(=O)c3cnccn3)cnc2-c2ccc(F)cc2)cc1` [CBK037150]: the viability at 28.5 h, 10 µM came out at 104%.
Next, `CC(=O)c1ccc(-c2nc(NC(=O)CC3OC(=O)c4ccccc43)cnc2-c2cccc(C)c2)s1` (stereo not shown) [CBK037152]: 112%; `CCCC/C=C/c1cc(NCCc2ccccn2)n2nccc2n1` [CBK037155]: 96.5%.
Turning to `CN1CCN(c2cc(-c3ccccc3N(C)C)nc3ccnn23)CC1` [CBK037158], the viability at 28.5 h, 10 µM amounted to 108%.
`O=C(CCOc1ccc(F)cc1)Nc1cnc(-c2ccc(F)cc2)c(-c2ccoc2)n1` [CBK037166]: the viability at 28.5 h, 10 µM was 91.9%.
For `O=C(CS(=O)(=O)c1ccccc1)Nc1cnc(-c2ccc(F)cc2)c(-c2ccoc2)n1` [CBK037168] the value was 107%; for `C[C@H](Nc1nccnc1-c1cccc(O)c1)c1ccccc1` [CBK037180], 106%.
On to `OCCN1CCN(c2cc(Nc3ccc(Oc4ccccc4)cc3)nc3ccnn23)CC1` [CBK037185], for which the viability at 28.5 h, 10 µM was found to be 94.9%.
For `O=C(NCCO)c1cccc(-c2cc(N3CCCC3CO)n3nccc3n2)c1` (stereo not shown) [CBK037187] the value was 96.7%.
